Usually GI50 stands for the concentration at which growth is held to half of that of the control.

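Tested at 5 concentrations; 48 h exposure; 96-well plates; endpoints linearly interpolated, else capped at highest concentration. Abbreviation: GI50, concentration required for 50% inhibition of growth.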 Activity calls are given as the source filed them. Rule as the data show it: active = GI50 up to about 1.1 µM and inactive = higher. Some results are limits rather than exact numbers.

Experimental findings from ChEMBL document CHEMBL1201862, “PubChem BioAssay data set” (2004) are described below.

Some test systems named below: A549; ACHN; CCRF-CEM; EKVX; HCC 2998; HOP-62; LOX IMVI; NCI-H226; NCI-H23; NCI-H460; NCI-H522; OVCAR-8; SF-539; SNB-75.
Assay in all cases: DTP human tumour cell line panel, 48 h

Turning to `CC(C)(C)C1C=C(Sc2ccccc2)C(=O)O1` (stereo unspecified), the GI50 in the assay with A549 was 33.3 µM (inactive); in the assay on ACHN, 32.1 µM (inactive); with CCRF-CEM it was 37.4 µM (inactive); in the assay with EKVX it was 47 µM (inactive); in the assay with HCC 2998, 58.9 µM (inactive); in the assay with HOP-62, 45.4 µM (inactive). The GI50 in the assay on LOX IMVI was 37.6 µM (inactive); in the assay on NCI-H226 it was 54.7 µM (inactive); with NCI-H23 it was 33.5 µM (inactive); in the assay with NCI-H460, 40.4 µM (inactive); in the assay on NCI-H522, 32.7 µM (inactive); with OVCAR-8, 37.3 µM (inactive). Moreover, the GI50 in the assay with SF-539 was 44.1 µM (inactive); in the assay on SNB-75, 22.8 µM (inactive).
As for `CCOC(=O)C1=C(O)C(=O)c2ccccc2C1=O`, the GI50 in the assay on A549, with ACHN, in the assay on CCRF-CEM, in the assay with EKVX, with HCC 2998 and with HOP-62 was > 100 µM (inactive) throughout. Besides, the GI50 in the assay on LOX IMVI was 85.1 µM (inactive); in the assay on NCI-H226 it was 48.3 µM (inactive); in the assay on NCI-H23, 44.3 µM (inactive); with NCI-H460, > 100 µM (inactive); in the assay on NCI-H522, > 100 µM (inactive); with OVCAR-8, > 100 µM (inactive). Further, the GI50 with SF-539 and in the assay on SNB-75 was > 100 µM (inactive) in each case.
Turning to `Cc1c(C)c2ccc(OC(C)C(=O)O)cc2oc1=O` (stereo unspecified), the GI50 in the assay with A549, in the assay with ACHN, in the assay on CCRF-CEM, in the assay with EKVX, in the assay on HCC 2998 and with HOP-62 was > 100 µM (inactive) in each case. In addition, the GI50 in the assay on LOX IMVI, in the assay with NCI-H226, in the assay with NCI-H23, in the assay on NCI-H460, in the assay with NCI-H522 and in the assay on OVCAR-8 was > 100 µM (inactive) in each case. Further, the GI50 in the assay on SF-539 and in the assay with SNB-75 was > 100 µM (inactive) each time.
In the case of `O=C1C(c2ccccc2)=C(c2ccccc2)C(c2ccccc2)/C1=C1\C(=O)C(c2ccccc2)=C(c2ccccc2)C1c1ccccc1` (stereo unspecified), the GI50 in the assay on A549, in the assay with ACHN, with EKVX, in the assay with HCC 2998, in the assay with HOP-62 and in the assay with LOX IMVI was > 100 µM (inactive) in each case. For the same molecule, the GI50 with NCI-H226, in the assay on NCI-H23, in the assay on NCI-H460, in the assay with NCI-H522, with OVCAR-8 and in the assay on SF-539 was > 100 µM (inactive) throughout. Further, in the assay on SNB-75, the GI50 is > 100 µM (inactive).
On to `C/C=C/C(=O)[C@@H](O)C(C)C`, for which the GI50 with A549, in the assay with ACHN, in the assay with EKVX, in the assay with HCC 2998, with NCI-H226 and with NCI-H23 was > 100 µM (inactive) in each case. Besides, the GI50 in the assay on NCI-H522, in the assay with OVCAR-8 and in the assay with SNB-75 was > 100 µM (inactive) throughout.
On to `O=C1C=CC(=O)C12CCc1ccccc12`, for which the GI50 was > 100 µM (inactive) in the assay on A549; > 100 µM (inactive) in the assay on ACHN; 28.5 µM (inactive) in the assay on CCRF-CEM; > 100 µM (inactive) in the assay with EKVX; > 100 µM (inactive) in the assay on HCC 2998; > 100 µM (inactive) in the assay on HOP-62. The GI50 was > 60.8 µM (inactive) in the assay with LOX IMVI; > 100 µM (inactive) in the assay with NCI-H226; > 100 µM (inactive) in the assay on NCI-H23; > 100 µM (inactive) in the assay with NCI-H460; 16.7 µM (inactive) in the assay with NCI-H522; > 100 µM (inactive) with OVCAR-8. Moreover, the results for the GI50 with SF-539 and with SNB-75 were > 100 µM (inactive) and 51.2 µM (inactive), respectively.
As to `Clc1ccc(-c2c(C3=NCCCN3)nnn2-c2ccccc2)cc1`, the GI50 is > 100 µM (inactive) with A549; > 100 µM (inactive) in the assay on ACHN; 35.9 µM (inactive) in the assay with CCRF-CEM; > 100 µM (inactive) with EKVX; > 100 µM (inactive) in the assay with HCC 2998; > 100 µM (inactive) in the assay with HOP-62. The GI50 in the assay on LOX IMVI is 24.9 µM (inactive); with NCI-H226 it was > 100 µM (inactive); in the assay on NCI-H23, > 100 µM (inactive); in the assay on NCI-H460, 33.6 µM (inactive); in the assay with NCI-H522, > 100 µM (inactive); in the assay with OVCAR-8 it was > 100 µM (inactive). Besides, the GI50 in the assay on SF-539 and with SNB-75 was > 100 µM (inactive) in each case.
On to `CC(=O)Nc1ccc(SC#N)c2c(NC(C)=O)cccc12`, for which the GI50 is > 100 µM (inactive) with A549; > 100 µM (inactive) in the assay with ACHN; 30.3 µM (inactive) with CCRF-CEM; > 100 µM (inactive) in the assay on EKVX; > 100 µM (inactive) in the assay with HCC 2998; > 100 µM (inactive) in the assay with HOP-62. Further, the GI50 is 56.4 µM (inactive) in the assay on LOX IMVI; > 100 µM (inactive) in the assay with NCI-H226; > 100 µM (inactive) with NCI-H23; > 100 µM (inactive) in the assay with NCI-H460; > 47.6 µM (inactive) in the assay with NCI-H522; > 100 µM (inactive) with OVCAR-8. Also, the GI50 in the assay on SF-539 and with SNB-75 was > 100 µM (inactive) each time.
In the case of `C[C@]12CCC(=O)C(O)=C1CCC2=O`, the GI50 in the assay on A549, with ACHN, in the assay on CCRF-CEM, in the assay with EKVX, in the assay on HCC 2998 and in the assay with HOP-62 was > 100 µM (inactive) each time. For the same molecule, the GI50 in the assay with LOX IMVI, in the assay on NCI-H226, in the assay on NCI-H460, in the assay on NCI-H522, with OVCAR-8 and in the assay on SF-539 was > 100 µM (inactive) throughout. In the assay on SNB-75, the GI50 is > 100 µM (inactive).
Consider `CC(=O)OCCOCNC(=S)N/N=C/c1ccc([N+](=O)[O-])s1`, for which the GI50 in the assay on A549 was 43.4 µM (inactive); in the assay with ACHN, 46.5 µM (inactive); in the assay on CCRF-CEM it was 4.72 µM (inactive); in the assay with EKVX, 55.5 µM (inactive); with HCC 2998 it was 43.2 µM (inactive); in the assay with HOP-62, > 100 µM (inactive). Also, the GI50 in the assay on LOX IMVI is 33.4 µM (inactive); with NCI-H226, > 100 µM (inactive); in the assay with NCI-H23 it was 19 µM (inactive); in the assay on NCI-H460, 42.4 µM (inactive); in the assay with NCI-H522 it was 11.2 µM (inactive); in the assay with OVCAR-8 it was 45.5 µM (inactive). In addition, the GI50 with SF-539 is 34 µM (inactive); with SNB-75, > 100 µM (inactive).
On to `CCOC(=O)C1(Br)S(=O)(=O)OCCOS1(=O)=O`, for which the GI50 in the assay with A549, in the assay with ACHN, with CCRF-CEM, in the assay on EKVX, with HCC 2998 and with HOP-62 was > 100 µM (inactive) throughout. The GI50 in the assay on LOX IMVI, with NCI-H226, in the assay on NCI-H23, in the assay on NCI-H460, in the assay on NCI-H522 and with OVCAR-8 was > 100 µM (inactive) in each case. In addition, the GI50 in the assay on SF-539 and with SNB-75 was > 100 µM (inactive) throughout.
For `O=C(O)C12CC3CC(CC(F)(C3)C1)C2`, the GI50 in the assay with A549, in the assay on ACHN, in the assay with CCRF-CEM, in the assay with EKVX, in the assay with HCC 2998 and in the assay with HOP-62 was > 100 µM (inactive) throughout. Also, the GI50 in the assay on LOX IMVI, in the assay on NCI-H23, in the assay on NCI-H460, in the assay on NCI-H522, with OVCAR-8 and in the assay on SF-539 was > 100 µM (inactive) throughout. Further, the GI50 in the assay with SNB-75 is 65.5 µM (inactive).
In the case of `CCOC(=N)CC(=O)Nc1cccc(C)c1C`, the GI50 in the assay with A549, in the assay with ACHN, in the assay on CCRF-CEM, in the assay with EKVX, with HCC 2998 and in the assay with HOP-62 was > 100 µM (inactive) in each case. In addition, the GI50 with LOX IMVI, in the assay with NCI-H226, in the assay with NCI-H23, in the assay with NCI-H460, with NCI-H522 and in the assay with OVCAR-8 was > 100 µM (inactive) each time. Also, the GI50 in the assay on SF-539 and in the assay on SNB-75 was > 100 µM (inactive) each time.
As for `CC1CCCC2(O1)OC1CC(=O)OC1C1=C2C(=O)c2ccccc2C1=O` (stereo unspecified), the GI50 is 16.9 µM (inactive) with A549; 4.39 µM (inactive) in the assay with ACHN; 1.57 µM (inactive) in the assay on CCRF-CEM; 3.87 µM (inactive) with EKVX; 2.37 µM (inactive) in the assay on HCC 2998; 16.4 µM (inactive) in the assay with HOP-62. The GI50 is 2.64 µM (inactive) in the assay with LOX IMVI; 1.3 µM (inactive) in the assay on NCI-H226; 5.13 µM (inactive) in the assay on NCI-H23; 25.9 µM (inactive) with NCI-H460; 1.6 µM (inactive) with NCI-H522; 2.51 µM (inactive) in the assay on OVCAR-8. Also, the GI50 in the assay with SF-539 was 5.81 µM (inactive); in the assay with SNB-75, 11.2 µM (inactive).
On to `CCCCCCCCCCCCCCCC(=O)N[C@H]1CCc2cc(OC)c(OC)c(OC)c2-c2ccc(SC)c(=O)cc21`, for which the GI50 with A549 was 0.486 µM (active); in the assay with ACHN it was 2.2 µM (inactive); in the assay with CCRF-CEM it was 0.356 µM (active); in the assay on EKVX, 0.454 µM (active); in the assay on HCC 2998 it was 0.297 µM (active); with HOP-62, 7.73 µM (inactive). Also, the GI50 in the assay on LOX IMVI was 2.45 µM (inactive); in the assay with NCI-H226, 0.196 µM (active); with NCI-H23, 0.29 µM (active); with NCI-H460 it was 0.376 µM (active); in the assay with OVCAR-8, 0.557 µM (active); in the assay with SF-539, 0.294 µM (active). The GI50 in the assay with SNB-75 was 0.238 µM (active).
